# From US20160106102A1, “KNOWN AND NEW HETEROCYCLIC COMPOUNDS AS PEST CONTROL AGENTS” (BAYER CROPSCIENCE AKTIENGESELLSCHAFT, priority 2013, published 2016)
# Read-outs that look alike come from different tables or passages of the source.
# Columns and labels:
# [1] = log P determination by LC-MS in the acidic range; assay type: physicochemical; conditions: for log P (acid): LC-MS in the acidic range
# Source text: The LC-MS determination in the acidic range is effected at pH 2.7 using 0.1% aqueous formic acid and acetonitrile (contains 0.1% formic acid) as eluents, linear gradient from 10% acetonitrile to 95% acetonitrile. Alternatively, the determination is effected in the acidic range at pH 2.3 using 0.1% aqueous phosphoric acid and acetonitrile as eluents; linear gradient from 10% acetonitrile to 95% acetonitrile.
# Myzus persicae [2] = assay: Myzus persicae - spray test; assay type: in vivo; conditions: application rate of 500 g/ha, after 6 days, sprayed Chinese cabbage leaf discs infested by all stages, 100% = all aphids killed; for pest or weed control at 500 g/ha: Myzus persicae, foliar, 144 h, read-out: efficacy in %
# Method: Myzus persicae—spray test Solvent: 78 parts by weight of acetone • • 1.5 parts by weight of dimethylformamide Emulsifier: 0.5 part by weight of alkylaryl polyglycol ether To produce an appropriate active ingredient formulation, 1 part by weight of active ingredient is mixed with the specified amounts of solvent and emulsifier, and the concentrate is diluted to the desired concentration with emulsifier-containing water. Discs of Chinese cabbage leaves (Brassica pekinensis) infested by all stages of the green peach aphid (Myzus persicae) are sprayed with an active ingredient formulation of the desired concentration. After 6 days, the efficacy in % is determined. 100% means that all the aphids have been killed; 0% means that no aphids have been killed.
# Myzus persicae [3] = assay: Myzus persicae - sachet test; assay type: in vivo; conditions: 100% = all animals killed
# Summary of the method: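 Active ingredient dissolved with 2% N-methylpyrrolidone and 2% diacetone alcohol, diluted in water, then pipetted into nutrient medium. Plate sealed and paired with a plate carrying green peach aphids. Kill in % scored after the set time (100% = all dead, 0% = none dead).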
# [4] = application rate of 6 ppm in nutrient medium
# [5] = application rate of 30 ppm in nutrient medium
SMILES,log P (acid) [1],"chromatographic logP ([1]; pH 2.7, LC-MS in the acidic range, read-out: log P (acid))","chromatographic logP ([1]; pH 2.7, values given in the synthesis examples and NMR lists, read-out: HPLC-MS: log P)","chromatographic logP ([1]; HPLC on a reversed-phase column (C 18), pH 2.7, values given in the synthesis examples and NMR lists, read-out: HPLC-MS: log P)","chromatographic logP ([1]; reversed-phase HPLC column (C18), pH 2.7, Table 2, compounds of the formula (I-2), acidic range pH 2.7 or pH 2.3, read-out: log P (acid))",efficacy in % (Myzus persicae [2]),efficacy (kill in %) (Myzus persicae [3]; [4]),efficacy (kill in %) (Myzus persicae [3]; [5]),pest or weed control at 500 g/ha (Myzus persicae [2]),"pest or weed control at 6 ppm (Myzus persicae [3]; Myzus persicae, application rate of 6 ppm in nutrient medium, read-out: efficacy (kill in %))","pest or weed control at 30 ppm (Myzus persicae [3]; Myzus persicae, application rate of 30 ppm in nutrient medium, read-out: efficacy (kill in %))"
Cn1ccc(NC(=O)c2cccnc2)n1 [Compound I-1-198],0.22,–,–,–,–,90%,100%,100%,–,–,–
Cc1cc(N(C)C(=O)c2cccnc2)nn1CC1CCCO1 (centres unmarked) [Compound I-1-181],1.05,–,–,–,–,90%,–,80%,–,–,–
Cc1cc(NC(=O)c2cccnc2)nn1Cn1nc(C2CC2)n(C2CC2)c1=O [Compound I-1-147],1.45,–,–,–,–,100%,100%,100%,–,–,–
Cc1cc(NC(=O)c2cccnc2)nn1CC1CC1 [Compound I-1-174],1.31,–,–,–,–,100%,100%,100%,–,–,–
COC(=O)C(C)(C)NC(=O)Cn1nc(NC(=O)c2cccnc2)cc1C [Compound I-1-32],0.72,–,–,–,–,90%,100%,100%,–,–,–
Cc1cc(NC(=O)c2cccnc2)nn1CCF [Compound I-1-5],0.84,–,–,–,–,90%,100%,100%,–,–,–
Cc1cc(N(C)C(=O)c2cccnc2)nn1CC[S+](C)[O-] (centres unmarked) [Compound I-1-186],0.16,–,–,–,–,100%,100%,100%,–,–,–
O=C(Nc1ccn(-c2ncc(C(F)(F)F)cc2Cl)n1)c1cccnc1 [Compound I-1-63],2.18,–,–,–,–,100%,–,100%,–,–,–
Cc1cc(NC(=O)c2cccnc2)nn1Cn1cccn1 [Compound I-1-225],0.94,–,–,–,–,100%,100%,100%,–,–,–
Cc1cc(NC(=O)c2cccnc2)nn1Cc1cn2cc(C(F)(F)F)ccc2n1 [Compound I-1-155],1.54,–,–,–,–,90%,100%,100%,–,–,–
O=C(Nc1ccn(CC(F)F)n1)c1cccnc1 [Compound I-1-13],0.74,–,–,–,–,90%,100%,100%,–,–,–
Cc1cc(NC(=O)c2cccnc2)nn1Cc1ncccc1C#N [Compound I-1-20],1.08,–,–,–,–,90%,100%,100%,–,–,–
Cc1cc(NC(=O)c2cccnc2)nn1Cc1cccnc1 [Compound I-1-15],0.12,–,–,–,–,90%,100%,100%,–,–,–
COc1nn(Cn2nc(NC(=O)c3cccnc3)cc2C)c(=O)n1C1CC1 [Compound I-1-144],1.27,–,–,–,–,90%,100%,100%,–,–,–
Cc1cc(NC(=O)c2cccnc2)nn1CC1OCCO1 [Compound I-1-180],0.81,–,–,–,–,100%,80%,100%,–,–,–
C#CCn1nc(NC(=O)c2cccnc2)cc1C [Compound I-1-19],0.93,–,–,–,–,100%,100%,100%,–,–,–
Cc1cc(NC(=O)c2cccnc2)nn1-c1cnccn1 [Compound I-1-55],1.27,–,–,–,–,80%,–,100%,–,–,–
Cc1cc(NC(=O)c2cccnc2)nn1CC(F)(F)F [Compound I-1-133],1.32,–,–,–,–,90%,100%,100%,–,–,–
Cc1cc(NC(=O)c2cccnc2)nn1C(F)F [Compound I-1-8],1.19,–,–,–,–,90%,100%,100%,–,–,–
Cc1cc(NC(=O)c2cccnc2)nn1CCS(C)(=O)=O [Compound I-1-182],0.49,–,–,–,–,100%,100%,100%,–,–,–
Cc1cc(NC(=O)c2cccnc2)nn1Cc1cccc(F)c1 [Compound I-1-60],1.9,–,–,–,–,100%,100%,100%,–,–,–
O=C(Nc1nn(Cc2ncccn2)c2ccccc12)c1cccnc1 [Compound I-1-215],1.16,–,–,–,–,90%,100%,100%,–,–,–
COCCN(CCOC)C(=O)n1nc(NC(=O)c2cccnc2)cc1C [Compound I-1-169],1.91,–,–,–,–,100%,100%,100%,–,–,–
Cc1cc(NC(=O)c2cccnc2)nn1Cn1nc(C)n(C)c1=O [Compound I-1-143],0.72,–,–,–,–,90%,100%,100%,–,–,–
Cc1cc(NC(=O)c2cccnc2)nn1S(=O)(=O)N(C)C [Compound I-1-231],1.52,–,–,–,–,90%,100%,100%,–,–,–
"Cc1cc(NC(=O)c2cccnc2)nn1-c1ncccn1 [Compound I-1-23, N-[5-Methyl-1-(pyrimidin-2-yl)-1H-pyrazol-3-yl]nicotinamide]",–,1.16,1.14,–,–,–,–,–,100%,100%,100%

# The next lines start with results.
log P (acid) [1],"chromatographic logP ([1]; pH 2.7, LC-MS in the acidic range, read-out: log P (acid))","chromatographic logP ([1]; pH 2.7, values given in the synthesis examples and NMR lists, read-out: HPLC-MS: log P)","chromatographic logP ([1]; HPLC on a reversed-phase column (C 18), pH 2.7, values given in the synthesis examples and NMR lists, read-out: HPLC-MS: log P)","chromatographic logP ([1]; reversed-phase HPLC column (C18), pH 2.7, Table 2, compounds of the formula (I-2), acidic range pH 2.7 or pH 2.3, read-out: log P (acid))",SMILES,efficacy in % (Myzus persicae [2]),efficacy (kill in %) (Myzus persicae [3]; [4]),efficacy (kill in %) (Myzus persicae [3]; [5]),pest or weed control at 500 g/ha (Myzus persicae [2]),"pest or weed control at 6 ppm (Myzus persicae [3]; Myzus persicae, application rate of 6 ppm in nutrient medium, read-out: efficacy (kill in %))","pest or weed control at 30 ppm (Myzus persicae [3]; Myzus persicae, application rate of 30 ppm in nutrient medium, read-out: efficacy (kill in %))"
1.03,–,–,–,–,Cc1cc(NC(=O)c2cccnc2)nn1Cc1noc(C(=O)N(C)C)n1 [Compound I-1-286],100%,100%,100%,–,–,–
2.18,–,–,–,–,CCCC(C)NC(=O)n1nc(NC(=O)c2cccnc2)cc1C (centres unmarked) [Compound I-1-318],90%,100%,100%,–,–,–
1.23,–,–,–,–,CCc1nn2c(=O)cc(Cn3nc(NC(=O)c4cccnc4)cc3C)nc2s1 [Compound I-1-352],90%,–,100%,–,–,–
1.03,–,–,–,–,Cc1cc(NC(=O)c2cccnc2)nn1S(C)(=O)=O [Compound I-1-277],100%,100%,100%,–,–,–
1.29,–,–,–,–,Cc1cc(NC(=O)c2cccnc2)nn1C(=O)NC(C)c1ncccn1 (centres unmarked) [Compound I-1-333],90%,100%,100%,–,–,–
1.25,–,–,–,–,Cc1cc(NC(=O)c2cccnc2)nn1CSc1ncccn1 [Compound I-1-234],90%,100%,100%,–,–,–
2,–,–,–,–,Cc1cc(NC(=O)c2cccnc2)nn1C(=O)Oc1ccccc1 [Compound I-1-233],90%,100%,100%,–,–,–
1.17,–,–,–,–,COCC(=O)n1nc(NC(=O)c2cccnc2)cc1C [Compound I-1-261],100%,100%,100%,–,–,–
0.45,–,–,–,–,CC[S+]([O-])Cn1nc(NC(=O)c2cccnc2)cc1C (centres unmarked) [Compound I-1-245],100%,100%,100%,–,–,–
1.79,–,–,–,–,Cc1cc(NC(=O)c2cccnc2)nn1C(=O)OCC(F)(F)F [Compound I-1-259],90%,100%,100%,–,–,–
1.5,–,–,–,–,CCS(=O)(=O)N(C)C(=O)n1nc(NC(=O)c2cccnc2)cc1C [Compound I-1-289],90%,100%,100%,–,–,–
1.32,–,–,–,–,Cc1cc(NC(=O)c2cccnc2)nn1Cc1ncnn1-c1ccccc1 [Compound I-1-304],100%,100%,100%,–,–,–
–,–,–,1.22,1.22,"O=C(Nc1ncn(Cc2ccccc2Cl)n1)c1cccnc1 [Compound I-2-7, N-[1-(2-Chlorobenzyl)-1H-1,2,4-triazol-3-yl]nicotinamide]",–,–,–,100%,–,–
